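Interpolation was linear, between the two tested concentrations surrounding the appropriate level; five concentrations were tested over 48 hours in 96-well plates. GI50: concentration for 50% inhibition of growth.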 Activity calls are given as the source filed them. Cut-off read from the data, not from the text of the source: active = GI50 up to about 1.1 µM and inactive = higher.
Tests used:
Assay in all cases: NCI tumour cell line growth inhibition, 48 h
UACC-62 = system: UACC-62
HCT-15 = system: HCT-15
TK-10 = system: TK-10
MDA-MB-435 = system: MDA-MB-435
HOP-62 = system: HOP-62
SF-268 = system: SF-268
PC-3 = system: PC-3
SW-620 = system: SW-620
M14 = system: M14
OVCAR-3 = system: OVCAR-3
DU-145 = system: DU-145
SF-295 = system: SF-295
Malme-3M = system: Malme-3M
A549 = system: A549
IGROV-1 = system: IGROV-1
SR = system: SR
NCI-H460 = system: NCI-H460
RPMI-8226 = system: RPMI-8226
K562 = system: K562
ACHN = system: ACHN
COLO 205 = system: COLO 205
EKVX = system: EKVX
KM12 = system: KM12
T47D = system: T47D
SNB-75 = system: SNB-75
Hs-578T = system: Hs-578T
MDA-N = system: MDA-N
OVCAR-4 = system: OVCAR-4
MCF7 = system: MCF7
OVCAR-8 = system: OVCAR-8
UACC-257 = system: UACC-257
NCI/ADR-RES = system: NCI/ADR-RES
RXF 393 = system: RXF 393
NCI-H23 = system: NCI-H23
NCI-H522 = system: NCI-H522
SK-MEL-28 = system: SK-MEL-28
HT-29 = system: HT-29
SK-MEL-2 = system: SK-MEL-2
SK-MEL-5 = system: SK-MEL-5
NCI-H226 = system: NCI-H226
786-0 = system: 786-0
SNB-19 = system: SNB-19
CCRF-CEM = system: CCRF-CEM
HL-60 = system: HL-60
OVCAR-5 = system: OVCAR-5
HOP-92 = system: HOP-92
SK-OV-3 = system: SK-OV-3
SN12C = system: SN12C
HCT-116 = system: HCT-116
SF-539 = system: SF-539
U-251 = system: U-251
UO-31 = system: UO-31
HCC 2998 = system: HCC 2998
MDA-MB-231 = system: MDA-MB-231
MOLT-4 = system: MOLT-4
LOX IMVI = system: LOX IMVI
BT-549 = system: BT-549
A498 = system: A498
CAKI-1 = system: CAKI-1

SMILES: CCc1cc2c(c3c1CCCC3)CC1(Cc3ccc(C(=O)OC)cc3C1)C2 (stereo not given)
- GI50 (UACC-62): > 100 µM (inactive)
- GI50 (HCT-15): > 100 µM
- GI50 (TK-10): > 100 µM (inactive)
- GI50 (MDA-MB-435): 52.6 µM (inactive)
- GI50 (HOP-62): > 100 µM (inactive)
- GI50 (SF-268): > 100 µM (inactive)
- GI50 (PC-3): 65 µM (inactive)
- GI50 (SW-620): > 100 µM (inactive)
- GI50 (M14): > 100 µM (inactive)
- GI50 (OVCAR-3): > 100 µM (inactive)
- GI50 (DU-145): > 100 µM (inactive)
- GI50 (SF-295): > 100 µM (inactive)
- GI50 (Malme-3M): > 100 µM (inactive)
- GI50 (A549): > 100 µM (inactive)
- GI50 (IGROV-1): > 100 µM (inactive)
- GI50 (SR): 28.9 µM (inactive)
- GI50 (NCI-H460): > 100 µM (inactive)
- GI50 (RPMI-8226): 44.6 µM (inactive)
- GI50 (K562): 40.3 µM (inactive)
- GI50 (ACHN): > 100 µM (inactive)
- GI50 (COLO 205): > 100 µM (inactive)
- GI50 (EKVX): 64.4 µM (inactive)
- GI50 (KM12): > 100 µM (inactive)
- GI50 (T47D): 46.8 µM (inactive)
- GI50 (SNB-75): > 100 µM (inactive)
- GI50 (Hs-578T): 60.3 µM (inactive)
- GI50 (MDA-N): > 100 µM (inactive)
- GI50 (OVCAR-4): > 100 µM (inactive)
- GI50 (MCF7): > 100 µM (inactive)
- GI50 (OVCAR-8): > 100 µM (inactive)
- GI50 (UACC-257): 53.1 µM (inactive)
- GI50 (NCI/ADR-RES): > 100 µM (inactive)
- GI50 (RXF 393): > 100 µM (inactive)
- GI50 (NCI-H23): > 100 µM (inactive)
- GI50 (NCI-H522): > 100 µM (inactive)
- GI50 (SK-MEL-28): > 100 µM (inactive)
- GI50 (HT-29): 73.8 µM (inactive)
- GI50 (SK-MEL-2): 94.6 µM (inactive)
- GI50 (SK-MEL-5): 71.8 µM (inactive)
- GI50 (NCI-H226): > 100 µM (inactive)
- GI50 (786-0): > 100 µM (inactive)
- GI50 (SNB-19): > 100 µM (inactive)
- GI50 (CCRF-CEM): 18.3 µM (inactive)
- GI50 (HL-60): 20.8 µM (inactive)
- GI50 (OVCAR-5): > 100 µM (inactive)
- GI50 (HOP-92): 36.7 µM (inactive)
- GI50 (SK-OV-3): > 100 µM (inactive)
- GI50 (SN12C): > 100 µM (inactive)
- GI50 (HCT-116): 54.3 µM (inactive)
- GI50 (SF-539): > 100 µM (inactive)
- GI50 (U-251): 86.1 µM (inactive)
- GI50 (UO-31): > 100 µM (inactive)
- GI50 (HCC 2998): > 100 µM (inactive)
- GI50 (MDA-MB-231): > 100 µM (inactive)
- GI50 (MOLT-4): 35.4 µM (inactive)
- GI50 (LOX IMVI): > 100 µM (inactive)
- GI50 (BT-549): > 100 µM (inactive)

SMILES: C=CCCCC1SC2=C(CC)CCCN2C1=O (stereo not given)
- GI50 (UACC-62): 81.3 µM (inactive)
- GI50 (HCT-15): 40.2 µM
- GI50 (TK-10): 84.3 µM (inactive)
- GI50 (MDA-MB-435): 84.3 µM (inactive)
- GI50 (HOP-62): > 100 µM (inactive)
- GI50 (SF-268): 74.6 µM (inactive)
- GI50 (PC-3): 45.2 µM (inactive)
- GI50 (SW-620): 77.4 µM (inactive)
- GI50 (M14): > 100 µM (inactive)
- GI50 (OVCAR-3): 78.7 µM (inactive)
- GI50 (DU-145): > 100 µM (inactive)
- GI50 (SF-295): 64 µM (inactive)
- GI50 (Malme-3M): 48.5 µM (inactive)
- GI50 (A549): 41.6 µM (inactive)
- GI50 (IGROV-1): > 100 µM (inactive)
- GI50 (SR): 57.7 µM (inactive)
- GI50 (A498): 90.4 µM (inactive)
- GI50 (RPMI-8226): 38.2 µM (inactive)
- GI50 (K562): > 100 µM (inactive)
- GI50 (ACHN): 89.1 µM (inactive)
- GI50 (COLO 205): 54 µM (inactive)
- GI50 (EKVX): 78.7 µM (inactive)
- GI50 (KM12): 86.7 µM (inactive)
- GI50 (T47D): 32.5 µM (inactive)
- GI50 (Hs-578T): 47.9 µM (inactive)
- GI50 (MDA-N): 70.1 µM (inactive)
- GI50 (OVCAR-4): 65.6 µM (inactive)
- GI50 (MCF7): 42.7 µM (inactive)
- GI50 (OVCAR-8): > 100 µM (inactive)
- GI50 (UACC-257): 27.6 µM (inactive)
- GI50 (NCI/ADR-RES): 31.6 µM (inactive)
- GI50 (RXF 393): 40.5 µM (inactive)
- GI50 (NCI-H23): 49.1 µM (inactive)
- GI50 (NCI-H522): 35.1 µM (inactive)
- GI50 (SK-MEL-28): 76.6 µM (inactive)
- GI50 (HT-29): 58.3 µM (inactive)
- GI50 (SK-MEL-2): > 100 µM (inactive)
- GI50 (SK-MEL-5): 36.1 µM (inactive)
- GI50 (NCI-H226): > 100 µM (inactive)
- GI50 (786-0): > 100 µM (inactive)
- GI50 (SNB-19): 73.5 µM (inactive)
- GI50 (HL-60): 34.4 µM (inactive)
- GI50 (OVCAR-5): > 100 µM (inactive)
- GI50 (HOP-92): 36.9 µM (inactive)
- GI50 (SK-OV-3): > 100 µM (inactive)
- GI50 (SN12C): > 100 µM (inactive)
- GI50 (HCT-116): 53.8 µM (inactive)
- GI50 (SF-539): > 100 µM (inactive)
- GI50 (U-251): 85.1 µM (inactive)
- GI50 (CAKI-1): > 100 µM (inactive)
- GI50 (UO-31): 67.5 µM (inactive)
- GI50 (MDA-MB-231): 92 µM (inactive)
- GI50 (MOLT-4): 56.8 µM (inactive)
- GI50 (LOX IMVI): 89.7 µM (inactive)
- GI50 (BT-549): 46.3 µM (inactive)

SMILES: O=C(Nc1ccc(Cl)cc1)c1cc(S(=O)(=O)Nc2nc3cccnc3[nH]2)c(SSc2cc(Cl)c(C(=O)Nc3ccc(Cl)cc3)cc2S(=O)(=O)Nc2nc3cccnc3[nH]2)cc1Cl
- GI50 (UACC-62): > 100 µM (inactive)
- GI50 (HCT-15): > 100 µM
- GI50 (TK-10): > 100 µM (inactive)
- GI50 (MDA-MB-435): > 100 µM (inactive)
- GI50 (HOP-62): > 100 µM (inactive)
- GI50 (SF-268): > 100 µM (inactive)
- GI50 (PC-3): > 100 µM (inactive)
- GI50 (SW-620): > 100 µM (inactive)
- GI50 (M14): > 100 µM (inactive)
- GI50 (OVCAR-3): > 100 µM (inactive)
- GI50 (DU-145): > 100 µM (inactive)
- GI50 (SF-295): > 100 µM (inactive)
- GI50 (Malme-3M): > 100 µM (inactive)
- GI50 (A549): > 100 µM (inactive)
- GI50 (IGROV-1): > 100 µM (inactive)
- GI50 (NCI-H460): > 100 µM (inactive)
- GI50 (A498): > 100 µM (inactive)
- GI50 (RPMI-8226): > 100 µM (inactive)
- GI50 (K562): 3.86 µM (inactive)
- GI50 (ACHN): > 100 µM (inactive)
- GI50 (COLO 205): > 100 µM (inactive)
- GI50 (EKVX): > 100 µM (inactive)
- GI50 (KM12): > 100 µM (inactive)
- GI50 (T47D): > 100 µM (inactive)
- GI50 (SNB-75): > 100 µM (inactive)
- GI50 (Hs-578T): > 100 µM (inactive)
- GI50 (MDA-N): > 100 µM (inactive)
- GI50 (OVCAR-4): > 100 µM (inactive)
- GI50 (MCF7): > 100 µM (inactive)
- GI50 (OVCAR-8): > 100 µM (inactive)
- GI50 (UACC-257): > 100 µM (inactive)
- GI50 (NCI/ADR-RES): > 100 µM (inactive)
- GI50 (RXF 393): 28.6 µM (inactive)
- GI50 (NCI-H23): > 100 µM (inactive)
- GI50 (NCI-H522): > 100 µM (inactive)
- GI50 (SK-MEL-28): > 100 µM (inactive)
- GI50 (HT-29): > 100 µM (inactive)
- GI50 (SK-MEL-2): > 100 µM (inactive)
- GI50 (SK-MEL-5): > 100 µM (inactive)
- GI50 (NCI-H226): > 100 µM (inactive)
- GI50 (786-0): > 100 µM (inactive)
- GI50 (SNB-19): > 100 µM (inactive)
- GI50 (CCRF-CEM): > 100 µM (inactive)
- GI50 (HL-60): > 100 µM (inactive)
- GI50 (OVCAR-5): > 100 µM (inactive)
- GI50 (HOP-92): > 100 µM (inactive)
- GI50 (SK-OV-3): > 100 µM (inactive)
- GI50 (SN12C): > 100 µM (inactive)
- GI50 (HCT-116): > 100 µM (inactive)
- GI50 (SF-539): > 100 µM (inactive)
- GI50 (U-251): > 100 µM (inactive)
- GI50 (CAKI-1): > 100 µM (inactive)
- GI50 (UO-31): > 100 µM (inactive)
- GI50 (HCC 2998): > 100 µM (inactive)
- GI50 (MDA-MB-231): > 100 µM (inactive)
- GI50 (MOLT-4): > 100 µM (inactive)
- GI50 (LOX IMVI): > 100 µM (inactive)
- GI50 (BT-549): > 100 µM (inactive)
